In ChEMBL document CHEMBL1777734, “Molecular hybridization of 4-azahexacyclo[5.4.1.0(2,6).0(3,10).0(5,9).0(8,11)]dodecane-3-ol with sigma (σ) receptor ligands modulates off-target activity and subtype selectivity” (Bioorg Med Chem Lett, 2011):

Tests used:
D(2) dopamine receptor [1] = molecular target: T1, D(2) dopamine receptor (Homo sapiens, UniProt P14416); assay: Displacement of [3H]N-methylspiperone from human D2 receptor expressed in HEK cells; assay type: cell-based, HEK293
[2] = molecular target: Sigma non-opioid intracellular receptor 1 (Rattus norvegicus, UniProt Q9R0C9); assay: Displacement of [3H](+)-pentazocine from sigma 1 receptor in rat brain homogenate; assay type: tissue-based
D(3) dopamine receptor [3] = molecular target: T2, D(3) dopamine receptor (Homo sapiens, UniProt P35462); assay: Displacement of [3H]N-methylspiperone from human D3 receptor expressed in HEK cells at 10 uM; assay type: cell-based; conditions: HEK293
[4] = Displacement of [3H]DTG from sigma 2 receptor in rat brain homogenate; assay type: tissue-based
D(3) dopamine receptor [5] = molecular target: T2, D(3) dopamine receptor; assay: Displacement of [3H]N-methylspiperone from human D3 receptor expressed in HEK cells; assay type: cell-based, HEK293
Rattus norvegicus = species on record: Rattus norvegicus; assay: Ratio of Ki for rat sigma 2 receptor to Ki for rat sigma 1 receptor
D(2) dopamine receptor [6] = molecular target: T1, D(2) dopamine receptor; assay: Displacement of [3H]N-methylspiperone from human D2 receptor expressed in HEK cells at 10 uM; assay type: cell-based; conditions: HEK293
D(1A) dopamine receptor = D(1A) dopamine receptor (Homo sapiens, UniProt P21728); assay: Displacement of [3H][…] from human D1 receptor expressed in HEK cells; assay type: cell-based, HEK293
D(1B) dopamine receptor = D(1B) dopamine receptor (Homo sapiens, UniProt P21918); assay: Displacement of [3H][…] from human D5 receptor expressed in HEK cells; assay type: cell-based, HEK293
D(4) dopamine receptor = molecular target: T3, D(4) dopamine receptor (Homo sapiens, UniProt P21917); assay: Displacement of [3H]N-methylspiperone from human D4 receptor expressed in HEK cells; assay type: cell-based, HEK293
T3 sequence (P21917 whole entry): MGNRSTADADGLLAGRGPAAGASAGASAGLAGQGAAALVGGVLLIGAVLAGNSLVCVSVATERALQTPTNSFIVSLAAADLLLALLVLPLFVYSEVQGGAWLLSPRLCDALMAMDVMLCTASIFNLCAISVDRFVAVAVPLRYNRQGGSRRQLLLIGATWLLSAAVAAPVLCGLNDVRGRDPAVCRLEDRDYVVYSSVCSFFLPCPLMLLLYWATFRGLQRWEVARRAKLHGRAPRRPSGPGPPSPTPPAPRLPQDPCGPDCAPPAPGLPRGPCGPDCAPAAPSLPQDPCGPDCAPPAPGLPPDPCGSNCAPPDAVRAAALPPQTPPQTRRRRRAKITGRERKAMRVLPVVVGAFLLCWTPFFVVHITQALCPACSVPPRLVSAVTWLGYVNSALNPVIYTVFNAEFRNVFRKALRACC

Sigma non-opioid intracellular receptor 1, sequence (Q9R0C9 whole entry): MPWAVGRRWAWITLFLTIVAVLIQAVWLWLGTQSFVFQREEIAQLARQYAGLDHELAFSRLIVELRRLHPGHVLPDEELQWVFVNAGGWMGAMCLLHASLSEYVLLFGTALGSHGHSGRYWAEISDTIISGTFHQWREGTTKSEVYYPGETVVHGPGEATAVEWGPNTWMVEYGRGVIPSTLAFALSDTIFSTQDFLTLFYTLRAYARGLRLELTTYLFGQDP
T2 sequence (P35462 whole entry): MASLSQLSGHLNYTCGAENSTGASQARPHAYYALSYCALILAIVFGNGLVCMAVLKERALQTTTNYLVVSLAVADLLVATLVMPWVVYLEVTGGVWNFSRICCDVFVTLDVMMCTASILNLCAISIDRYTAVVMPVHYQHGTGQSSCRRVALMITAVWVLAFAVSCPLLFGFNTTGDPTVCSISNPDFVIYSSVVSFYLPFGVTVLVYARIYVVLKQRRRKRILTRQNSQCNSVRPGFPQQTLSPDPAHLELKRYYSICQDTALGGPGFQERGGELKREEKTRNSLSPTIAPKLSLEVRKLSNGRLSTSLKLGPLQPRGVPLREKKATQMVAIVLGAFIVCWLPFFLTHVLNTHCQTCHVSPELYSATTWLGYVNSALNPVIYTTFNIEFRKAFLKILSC
T1 sequence (P14416 whole entry): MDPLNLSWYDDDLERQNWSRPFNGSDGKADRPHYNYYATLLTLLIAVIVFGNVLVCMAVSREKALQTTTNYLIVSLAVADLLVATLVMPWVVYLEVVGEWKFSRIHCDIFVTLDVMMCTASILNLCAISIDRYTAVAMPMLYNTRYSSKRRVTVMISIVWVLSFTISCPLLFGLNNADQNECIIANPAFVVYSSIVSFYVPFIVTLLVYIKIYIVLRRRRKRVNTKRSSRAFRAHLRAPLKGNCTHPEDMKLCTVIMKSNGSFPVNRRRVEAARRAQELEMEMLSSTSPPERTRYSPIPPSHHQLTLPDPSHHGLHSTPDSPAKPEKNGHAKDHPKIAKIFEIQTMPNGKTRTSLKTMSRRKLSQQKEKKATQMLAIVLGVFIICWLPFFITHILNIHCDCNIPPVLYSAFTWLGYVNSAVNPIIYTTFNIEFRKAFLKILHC
D(1A) dopamine receptor, sequence (P21728 whole entry): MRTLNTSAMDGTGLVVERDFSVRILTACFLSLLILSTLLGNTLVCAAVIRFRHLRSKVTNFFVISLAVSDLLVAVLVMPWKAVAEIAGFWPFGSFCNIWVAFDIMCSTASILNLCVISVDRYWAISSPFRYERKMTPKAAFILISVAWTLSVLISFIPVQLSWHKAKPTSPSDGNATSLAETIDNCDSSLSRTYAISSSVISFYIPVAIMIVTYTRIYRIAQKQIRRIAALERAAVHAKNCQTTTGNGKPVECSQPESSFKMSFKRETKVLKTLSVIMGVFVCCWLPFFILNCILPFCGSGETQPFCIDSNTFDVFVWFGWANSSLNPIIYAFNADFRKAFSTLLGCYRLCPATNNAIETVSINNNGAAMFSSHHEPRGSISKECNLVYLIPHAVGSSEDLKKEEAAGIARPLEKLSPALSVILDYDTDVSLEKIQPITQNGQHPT
D(1B) dopamine receptor, sequence (P21918 whole entry): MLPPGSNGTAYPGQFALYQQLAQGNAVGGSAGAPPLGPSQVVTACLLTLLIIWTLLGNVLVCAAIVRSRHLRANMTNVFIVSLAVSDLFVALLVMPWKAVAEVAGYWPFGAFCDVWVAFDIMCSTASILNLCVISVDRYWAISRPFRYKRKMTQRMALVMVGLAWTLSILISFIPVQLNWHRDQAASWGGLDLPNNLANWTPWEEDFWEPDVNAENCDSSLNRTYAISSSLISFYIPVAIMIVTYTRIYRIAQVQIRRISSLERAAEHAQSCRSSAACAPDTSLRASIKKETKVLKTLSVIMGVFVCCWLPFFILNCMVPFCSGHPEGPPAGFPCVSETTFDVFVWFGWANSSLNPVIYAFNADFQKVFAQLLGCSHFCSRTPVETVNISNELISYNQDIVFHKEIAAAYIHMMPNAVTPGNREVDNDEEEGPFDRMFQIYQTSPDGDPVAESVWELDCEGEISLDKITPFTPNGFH

Row | Compound | Ki (D(2) dopamine receptor [1]) | Ki [2] | Ki [4] | Ki (D(3) dopamine receptor [5]) | Ratio Ki (Rattus norvegicus) | Activity (D(2) dopamine receptor [6]) | Ki (D(1A) dopamine receptor) | also measured
1 | COc1ccc(C)cc1C(=O)NCCN1C2C3C4CC5C6C4C2C6C1(O)C53 (stereo not given) | > 10000 nM | 7.6 nM | 225 nM | > 10000 nM | 30 | < 50% |  | Activity (D(3) dopamine receptor [3]): < 50%
2 | O=C(CCCN1CCC(O)(c2ccc(Cl)cc2)CC1)c1ccc(F)cc1 [HALOPERIDOL] |  |  | 7.93 nM |  |  |  |  | 
3 | COc1ccc(CCN2C3C4C5CC6C7C5C3C7C2(O)C64)cc1OCCc1ccccc1 (stereo not given) | > 10000 nM | 20 nM | 93 nM |  | 4.7 | < 50% | > 10000 nM | 
4 | O=C(CCCN1C2C3C4CC5C6C4C2C6C1(O)C53)c1ccc(F)cc1 (stereo not given) | 1720 nM | 27 nM | 55 nM | 1960 nM |  |  | 209 nM | Ki (D(1B) dopamine receptor): > 10000 nM; Ki (D(4) dopamine receptor): 93 nM
5 | COc1cc2c(cc1OC)CN(CCNC(=O)c1cc(C)ccc1OC)CC2 |  |  | 13.3 nM |  |  |  |  | 
6 | CCCN(CCC)CCc1ccc(OC)c(OCCc2ccccc2)c1 |  |  | 212 nM |  |  |  |  | IC50 (D(2) dopamine receptor [1]): > 10000 nM; IC50 (D(1A) dopamine receptor): > 10000 nM
